Experimental data taken from patent US11325908B2, “CaMKII inhibitors and uses thereof” (The Johns Hopkins University, priority 2014, dated 2022).

These compounds were tested against CaMKIIδ (Homo sapiens (Human), UniProt Q13557) (assay: In vitro CaMKIIδ activity assay (coupled assay measuring ADP released, AC3 peptide substrate)). Settings: full length C-terminal His/Gln tagged CaMKIIδ construct, 16 nM enzyme, 25° C., compound 0.5 nM to 10 uM, duplicate.
Type: biochemical
Method: An exemplary procedure for the in vitro CaMKIIδ inhibition assay, which can be used to determine the inhibitory action of compounds of the invention toward CaMKII, follows. The procedure is taken from Chao L H, et al., (2010) Nat Struct Mol Biol. 17(3): 264-272, which is incorporated herein by reference in its entirety.
The inhibition of CaMKII activity was evaluated using a coupled assay measuring ADP released following ATP hydrolysis and phosphor-transfer to the peptide substrate AC3 (KKALHRQETVDAL; SEQ ID NO: 1) (1). A full length, C-terminal His/Gln tagged CaMKIIδ construct was used (sequence in Table 3 below).
Compounds were added in 5 uL volume to wells in UV transparent 96-well plates (1/2 area well size). The final compound concentrations tested ranged from 0.5 nM to 10 uM). Assays were performed in duplicate. CaMKIIδ is added to at a final concentration of 16 nM to a mixture containing 100 mM Tris (pH 7.5), 150 mM KCl, 0.27 mM EGTA, 1.3 mM PEP, 0.2 mg/ml AC3, 6.9% (v/v) PK/LDH mixture (Sigma P0294), 0.38 mM NADH and kept on ice. 72 uL of the enzyme mixture was added to the wells containing compounds and the plate was shaken briefly and kept on ice. The assay was initiated by adding 23 uL of a mixture containing 100 mM Tris (pH 7.5), 150 mM KCl, 1.7 mM CaCl2, 48 mM MgCl2, 0.35 mM ATP and 6.7 ug/mL calmodulin. The rate of ADP released was measured as the rate of absorbance decrease at […] at 25° C. and plotted against the log of the compound concentration (FIG. 1). IC50 data were fitted using GraphPad Prism software.

c1cc(-c2ccnc3[nH]c4ccccc4c23)cc(N2CCNCC2)c1 [Compound I-1, 4-(3-(piperazin-1-yl)phenyl)-9H-pyrido[2,3-b]indole] and Nc1cccc(-c2ccnc3[nH]c4ccccc4c23)c1 [Compound I-6] fall in the same range of IC50: 50 to 250 nM for the first, 50 to 250 nM for the second.

Compared with N=C(N)Nc1cccc(-c2ccnc3[nH]c4ccccc4c23)c1 [Compound I-4], N=C(N)NCc1cccc(-c2ccnc3[nH]c4ccccc4c23)c1 [Compound I-5] is higher in IC50: 50 to 250 nM for the first, 250 to 1000 nM for the second. The first is the more potent here.
